Data published in patent publication US10912769B2, “1-[(pyridin-3-yl-sulfonyl)-1H-pyrrol-3-yl] methanamine derivative and pharmaceutical composition and use thereof” (Jiangsu Jibeier Pharmaceutical Co. Ltd., priority 2016, dated 2021).
Structures can show the parent of a compound that is named as a salt. Where two headings read alike, the source gives them in different places. Marks after values point to notes of the source that are not given here.

Tests used:
[1] = system: basal gastric acid secretion in rats; assay: Inhibitory test of basal gastric acid secretion in pylorus-ligated rats after intragastric administration; assay type: in vivo, SD rats; settings: for Inhibitory rate (basal gastric acid secretion) / Amount of gastric juice / Total acid amount of the gastric juice: n = 10; for Amount of gastric juice: pylorus ligation 1 h after administration, gastric juice collected after 4 h; for Amount of gastric juice / Total acid amount of the gastric juice: X ± S; for Total acid amount of the gastric juice: titration with 0.01 mol/L NaOH; for Effect on the total acid amount of the gastric juice as compared with the model control group: I-1a 2 mg/kg and 1 mg/kg, vonoprazan fumarate 2 mg/kg, P<0.05 or P<0.01
From the text: An equal amount of deuterated vonoprazan fumarate derivatives I-1a, I-2a, I-3a and I-4a prepared and obtained in the Examples and vonoprazan fumarate (vonoprazan was 1-[5-(2-fluorophenyl)-1-(pyridin-3-yl-sulfonyl)-1H-pyrrol-3-yl]-N-methylmethanamine) were taken respectively and subjected to the inhibitory activity test on gastric acid secretion in rats.
SD rats which were SPF grade and weighed 180 to 200 g were selected and used in this experiment. The rats were grouped randomly with 10 rats in each group (half male and half female). Animals were fasted but free to access water for 16 hours. 1 hour after administration, the animals were anesthetized with isoflurane and fixed in a supine position. The abdomen was shaved and disinfected routinely. A 1.5 cm incision was made along the midline and below the xiphoid, the stomach was taken gently, the gastric pylorus was ligated with surgical suture at the junction of the stomach pylorus and the duodenum, and the incision was sutured. The animals were fasted and water-deprived after the surgery. After 4 hours, the animals were anesthetized by intra-abdominally injecting 1% sodium pentobarbital. The incision was opened, and the gastric cardia was ligated. The stomach was taken out and cut open along the greater curvature of stomach. The gastric juice was collected and centrifuged at 3000 rpm for 10 minutes. The supernatant was aspirated and the volume of the gastric juice was measured. 0.5 mL of the gastric juice was taken and placed in a small conical flask, a drop of phenolphthalein indicator was added, and the mixture was titrated with 0.01 mol/L sodium hydroxide until the red color appeared (the color was no longer deepened) as the endpoint. The total amount of gastric acid was calculated according to the following formula. The average secretion amount of the gastric juice and the total acid amount of the gastric juice of each administered group and the model control group were subjected to statistical tests.
The inhibitory test of basal gastric acid secretion in rats was carried out after intragastric administration of the vonoprazan fumarate derivatives and vonoprazan fumarate, and the results were as shown in Table 1 and FIG. 1. […] The inhibitory effects of the vonoprazan fumarate derivative (Compound I-1a) with a dosage of 2 mg/kg on the secretion amount of gastric juice and the total acid amount of the gastric juice in rats were stronger than that of the same dosage (2 mg/kg) of vonoprazan fumarate, and there was a significant difference between the two (P<0.05). As compared with vonoprazan fumarate, the vonoprazan fumarate derivatives had stronger inhibitory effect on the gastric acid secretion in rats at the same dosage.

[2] = Pharmacokinetic experiment in rats after single intragastric administration (plasma LC-MS/MS); assay type: in vivo; settings: both sexes, SD, rat, po, 2 mg/kg intragastric; for AUC(0-inf) / Cmax / Tmax / half-life: n = 6; for bioavailability: n = 6, read-out: F (absolute bioavailability); for AUC(0-t): 2 mg/kg
Protocol: An equal amount of Compound I-1a (1-[5-(2-fluorophenyl)-1-(pyridin-3-yl-sulfonyl)-1H-pyrrol-3-yl]-N-methyldideuteromethanamine fumarate) prepared and obtained in the Example and vonoprazan fumarate were taken respectively and subjected to a pharmacokinetic experiment.
Drug formulating manner: 16 mg of the drug (the vonoprazan fumarate derivatives or vonoprazan fumarate) was weighed and taken, and dissolved in 2 mL of N-methylpyrrolidone. 38 mL of 5% glucose injection was further added thereto to prepare a dosing solution with a concentration of 0.4 mg/mL and the dosing solution was administered by intragastric administration.
Intragastric administration: 6 SD rats (half male and half female) were taken and orally administered as a single dose (2 mg/kg). Blood samples was collected after administration, and the time points of blood collection were 0.083 hours, 0.25 hours, 0.5 hours, 1 hour, 2 hours, 3 hours, 4 hours, 6 hours, 8 hours, 12 hours, 24 hours, 36 hours, and 48 hours after the administration.
Sample collection: 200 μL of whole blood was taken at each time point of blood collection, heparin was added for anticoagulation, and the mixture was centrifuged at 12000 rpm for 5 min at 4° C. 50 μL of the plasma was taken and placed in a polypropylene tube, and the rest was used for backup and stored at −20° C. to be tested.
Plasma treatment method: To 50 μL of rat plasma anticoagulated by heparin, 50 μL of methanol and […], of a solution of the internal standard etofesalamide in methanol (10 ng/mL) were added. The mixture was vortexed for 1 min and centrifuged at 12000 rpm for 10 min at 4° C. 100 μL of the supernatant was taken and placed in a vial insert, and 1 μL of the supernatant was injected for LC-MS/MS analysis.
The pharmacokinetic parameters were calculated by non-compartment model statistical moment method using WinNonlin 6.3 software.

[3] = mean, n = 6, read-out: AUC0-6 h

AUC(0-inf) ([2]; mean) | Cmax ([2]; mean) | Tmax ([2]; mean) | half-life ([2]; mean) | bioavailability [2] | AUC(0-t) [2, 3] | AUC(0-t) ([2]; read-out: AUC0-t in the plasma) | Structure (SMILES) | Inhibitory rate (basal gastric acid secretion) ([1]; 1 mg/kg intragastric) | Amount of gastric juice ([1]; 1 mg/kg intragastric) | Total acid amount of the gastric juice ([1]; 1 mg/kg intragastric) | Inhibitory rate (basal gastric acid secretion) ([1]; 2 mg/kg intragastric) | Amount of gastric juice ([1]; 2 mg/kg intragastric) | Total acid amount of the gastric juice ([1]; 2 mg/kg intragastric) | Effect on the total acid amount of the gastric juice as compared with the model control group [1] | also measured
– | – | – | – | – | – | – | O=C(O)/C=C/C(=O)O.[2H]C([2H])(NC)c1cc(-c2ccccc2F)n(S(=O)(=O)c2cccnc2)c1 [Compound I-1a, 1-[5-(2-fluorophenyl)-1-(pyridin-3-yl-sulfonyl)-1H-pyrrol-3-yl]-N-methyldideuteromethanamine fumarate] | 52.7% | 2.6 ± 0.8 mL | 153.3 ± 85.9 µmol | 95.3% | 1.8 ± 0.9**^Δ mL | 15.3 ± 12.9***^Δ μmol | significant inhibitory effect | Effect on the secretion amount of gastric juice as compared with the model control group ([1]; 2 mg/kg, P<0.01): significant inhibitory effect; Inhibitory effects on secretion amount and total acid amount of gastric juice compared with same dosage of vonoprazan fumarate ([1]; 2 mg/kg, P<0.05): stronger
– | – | – | – | – | – | – | O=C(O)/C=C/C(=O)O.[2H]C([2H])([2H])NC([2H])([2H])c1cc(-c2ccccc2F)n(S(=O)(=O)c2cccnc2)c1 [Compound I-2a, 1-[5-(2-fluorophenyl)-1-(pyridin-3-yl-sulfonyl)-1H-pyrrol-3-yl]-N-trideuteromethyldideuteromethanamine fumarate] | – | – | – | 95.5% | – | – | – | –
– | – | – | – | – | – | – | O=C(O)/C=C/C(=O)O.[2H]c1nc([2H])c(S(=O)(=O)n2cc(C([2H])([2H])NC([2H])([2H])[2H])cc2-c2ccccc2F)c([2H])c1[2H] [Compound I-4a, 1-[5-(2-fluorophenyl)-1-(tetradeuteropyridin-3-yl-sulfonyl)-1H-pyrrol-3-yl]-N-trideuteromethyldideuteromethanamine fumarate] | – | – | – | 97.4% | – | – | – | –
45 ng·h/mL | 67.3 ng/mL | 15 min | 47.8 min | 33.5% | 44.6 ng·h/mL | 45 ng·h/mL | CNCc1cc(-c2ccccc2F)n(S(=O)(=O)c2cccnc2)c1 [TAK-438, 1-[5-(2-fluorophenyl)-1-(pyridin-3-yl-sulfonyl)-1H-pyrrol-3-yl]-N-methylmethanamine, reference compound] | – | – | – | – | – | – | – | –
56.4 ng·h/mL | 74.9 ng/mL | 15 min | 57.7 min | 42.9% | 56.2 ng·h/mL | 56.4 ng·h/mL | [2H]C([2H])(NC)c1cc(-c2ccccc2F)n(S(=O)(=O)c2cccnc2)c1 [TAK-438d2, 1-[5-(2-fluorophenyl)-1-(pyridin-3-yl-sulfonyl)-1H-pyrrol-3-yl]-N-methyldideuteromethanamine] | – | – | – | – | – | – | – | –
– | – | – | – | – | – | – | CNCc1cc(-c2ccccc2F)n(S(=O)(=O)c2cccnc2)c1 [vonoprazan fumarate, reference compound] | 43.1% | 3.1 ± 1.2 mL | 184.2 ± 83.4 µmol | 73.8% | 3.0 ± 1.3 mL | 84.9 ± 83.2 µmol | significant inhibitory effect | –
